Measured values as given in patent EP1049703B1, “N-[2-(5-BENZYLOXYCARBONYL-AMINO-6-OXO-2-(4-FLUOROPHENYL)-1,6-DIHYDRO-1-PYRIMIDINYL)ACETOXYL]-L-ASPARTIC ACID ALDEHYDE AS AN IN VIVO INHIBITOR OF INTERLEUKIN-1BETA CONVERTING ENZYME” (WARNER-LAMBERT COMPANY, priority 1998, dated 1999).

Assays:
Ich-2 (Caspase 4) = biological target: T1, Ich-2 (Caspase 4) (Homo sapiens, UniProt P49662); assay: Ich-2 colorimetric dose-response (IC50) assay; format: biochemical; conditions: enzyme 64 nM, 60 µM Ac-Leu-Glu-Val-Asp-pNA
T1 sequence (P49662 81-270 limits assumed): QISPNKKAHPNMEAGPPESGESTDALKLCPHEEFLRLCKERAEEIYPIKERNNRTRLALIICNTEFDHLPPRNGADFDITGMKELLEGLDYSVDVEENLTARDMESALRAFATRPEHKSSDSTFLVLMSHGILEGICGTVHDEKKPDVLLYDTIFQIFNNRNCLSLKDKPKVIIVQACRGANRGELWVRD
T1 sequence (P49662 290-377 limits assumed): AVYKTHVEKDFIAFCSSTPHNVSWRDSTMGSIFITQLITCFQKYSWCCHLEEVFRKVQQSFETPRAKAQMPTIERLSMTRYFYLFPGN
Procedure: Inhibition of Ich-2 (Caspase 4) enzyme is assayed as described above for ICE, except that enzyme is used at 64 nM, and 60 µM of the Ich-2-specific substrate Ac-Leu-Glu-Val-Asp-pNA is used instead of the ICE substrate Ac-Tyr-Val-Ala-Asp-pNA.

[1] = tested on: IL-1β production in human peripheral blood mononuclear cells (PBMCs); assay: PBMC cellular assay: LPS-stimulated IL-1β production (ELISA); format: cell-based; conditions: PBMCs stimulated overnight with 10 ng/mL LPS, concentration which reduces IL-1β levels by 50%, read-out: 3. PBMC IC50
From the text: Further evidence that compound 1 is a potent inhibitor of ICE is provided by its ability to inhibit IL-1β production in human peripheral blood mononuclear cells (PBMCs) as described herein. PBMCs are isolated from heparinized blood by centrifugation over a ficoll cushion, then washed three times with phosphate-buffered saline. PBMCs are suspended in a medium containing RPMI 1640 with glutamine, penicillin, streptomycin, and 2% human AB serum, then plated at 10^6 cells per well in 96 well flat bottom plates. PBMCs are stimulated overnight with 10 ng/mL of lipopolysaccharide (LPS, E. Coli strain 0111:B4; Calbiochem) in the presence or absence of compound 1 or 2. Medium is harvested, and the level of mature IL-1β was determined using an ELISA kit from R & D Systems. Compound inhibition is assessed by determining the concentration of agent which reduces IL-1β levels by 50%. Cells were cultured for an additional 4 hours in the presence of 3-(4, 5-dimethylthiazol-2-yl)-2, 5-diphenyltetrazolium bromide (MTT) to determine viability. Compound toxicity can, therefore, be assessed by determining the concentration of agent which kills 50% of the cells (IC50).

ICE [2] = biological target: T2, ICE (Homo sapiens, UniProt P29466); assay: ICE inhibition studies (fluorogenic substrate Ac-Tyr-Val-Ala-Asp-AMC, Ki); format: biochemical
T2 sequence (P29466 120-297 limits assumed): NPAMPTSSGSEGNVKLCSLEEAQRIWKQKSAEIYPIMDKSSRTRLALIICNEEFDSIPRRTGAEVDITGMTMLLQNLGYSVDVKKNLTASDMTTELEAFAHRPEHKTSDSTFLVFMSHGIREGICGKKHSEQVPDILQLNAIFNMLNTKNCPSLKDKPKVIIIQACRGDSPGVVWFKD
T2 sequence (P29466 317-404 limits assumed): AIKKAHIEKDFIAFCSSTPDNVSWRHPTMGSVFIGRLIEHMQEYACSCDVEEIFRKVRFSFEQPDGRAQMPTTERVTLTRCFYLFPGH
Procedure: ICE (0.24 nM final concentration) is added to 400 µL of HGDE buffer (100 mM HEPES, 20% glycerol, 5 mM DTT, 0.5 mM EDTA) containing 15 µM substrate (Ac-Tyr-Val-Ala-Asp-AMC; KM = 15 µM) plus vehicle (DMSO) or inhibitor at concentrations bracketing the Ki. Substrate hydrolysis is monitored for 300 seconds by observing the fluorescence of released AMC using excitation at 380 nm and emission at 460 nm. Mean rates of substrate hydrolysis are evaluated by linear-regression analysis of the fluorescence vs time traces. To evaluate Ki, plots of percent inhibition vs inhibitor concentration are fit by non-linear regression to a reversible, competitive model: [formula] where the competition factor (1 + [S]/KM) = 2.

IL-1β production = assay: Mouse model: LPS-induced plasma IL-1β production; format: in vivo, Female C57BL/6 mice; conditions: for inhibition of IL-1β production: 5 mg/kg LPS i.v. at T0, compound i.v. at 3.75 hours, plasma at T4h, compared to vehicle treated animals; for production of IL-1β (result in words): summary statement
Procedure: Female C57BL/6 mice are injected intravenously with 5 mg/kg lipopolysaccaride (LPS) (E. coli 0111:B4) at T0; this induces production of the cytokine interleukin-1β. After 3.75 hours from the administration of LPS, the mice are injected intravenously with either vehicle or a test compound. The mice are bled at T4h and plasma analyzed for IL-1β by ELISA. The vehicle is 5% DMSO/20% Trappsol/3% Dextrose/NMDG.

ICE [3] = biological target: T2, ICE; assay: ICE colorimetric dose-response (IC50) assay; format: biochemical; conditions: about 24 nM ICE, 60 minutes preincubation, 50 µM Ac-Tyr-Val-Ala-Asp-pNA; read-out: 2. ICE IC50
Procedure: Diluted inhibitor stocks are prepared by two-fold serial dilution from a primary stock whose concentration is selected (based on screening results or on prior attempts at IC50 evaluation) to achieve approximately 95% inhibition in the most concentrated well. Aliquots of each dilution are transferred to a microtitre plate in triplicate.
ICE enzyme is diluted to approximately 24 nM in HGE buffer (100 mM Hepes pH 7.5, 0.5 mM EDTA, 20% glycerol, 0.1% Bovine Serum Albumin (BSA), and activated by adding dithiothreitol (DTT) to a final concentration of 5 mM. The activated enzyme is then aliquoted into wells containing inhibitor or vehicle, and the plate is preincubated for 60 minutes at ambient temperature. Substrate (Ac-Tyr-Val-Ala-Asp-pNA) is added to each well to a final concentration of 50 µM, and plates are placed in the microtitre plate-reader thermostated to 25°°C. Beginning 5 minutes after addition of substrate, absorbance (405 nm) of wells is monitored for 1 hour, and activity is calculated as the mean rate of change in absorbance during this interval.

excitotoxic brain damage = assay: Excitotoxic brain damage in neonatal rats; format: in vivo, Seven-day-old rat pups; conditions: for % Loss (percent loss of hemisphere weight): 30 mg/kg intraperitoneal 0.25 hours after 15 nMoles of MDA into right caudate nucleus, five days later; for extent of exitotoxic brain damage in rat pups (result in words): summary statement
Procedure: Compound 1 and compound 2 are tested in a model of excitotoxic brain damage in neonatal rats. Seven-day-old rat pups are anesthetized with ether, placed in a head holder and injected with 15 nMoles of MDA into the right caudate nucleus. The pups are treated by intraperitoneal injection with drug (30 mg/kg) or vehicle (0.2% methocel in water) 0.25 hours later and then returned to their home cage. Five days following this excitotoxic challenge, the pups are sacrificed, their brains removed and hemispheres weighed. The loss in weight of the injected hemisphere relative to the contralateral hemisphere is an estimate of the degree of brain necrosis. […] Importantly, such protection is not seen at the same dose of compound 2.

focal cerebral ischemia = assay: Ischemic brain damage model: permanent (MCAOp) and transient (MCAOt) focal cerebral ischemia; format: in vivo, CD-1 mice
Procedure: Compound 1 is tested in both permanent (MCAOp) and transient (MCAOt) models of focal cerebral ischemia in the mouse. The middle cerebral artery is occluded by an intraluminal suture in CD-1 mice. In the transient model, the suture is withdrawn after 1 hour and in both studies, mice are sacrificed at 24 hours, and brain lesion size is determined from H and E stained sections. Drug or vehicle is administered IP at -5, 60, and 180 minutes from the time of vessel occlusion at doses of 25 and 50 mg/kg × 3 (MCAOp) or 50 mg/kg × 3 (MCAOt). In the more severe MCAOp, there is a small reduction in lesion size (13%, p <0.04, one-tailed t-test) at the high dose whereas, in the less severe MCAOt, the lesion size is 60% smaller in the drug treated mice (p <0.002).

With `O=C(O)CC(NC(=O)Cn1c(-c2ccc(F)cc2)ncc(NC(=O)OCc2ccccc2)c1=O)C(=O)COc1cc(C(F)(F)F)nn1-c1ccccc1` (centres unmarked) [Compound 2, reference compound] the IC50 (Ich-2 (Caspase 4)) was 5 nM, the IC50 [1] was 2200 nM and the “Mode of Inhib.” value (ICE [2]) was “irreversible”. The “inhibition of IL-1β production” value (IL-1β production) was 11%, the “production of IL-1β (result in words)” value (IL-1β production) was “inactive” and the IC50 (ICE [3]) was 4 nM. The “% Loss (percent loss of hemisphere weight)” value (excitotoxic brain damage) was 20.8% and the “extent of exitotoxic brain damage in rat pups (result in words)” value (excitotoxic brain damage) was “not seen”.

`O=CC(CC(=O)O)NC(=O)Cn1c(-c2ccc(F)cc2)ncc(NC(=O)OCc2ccccc2)c1=O` [Compound 1, N-[2-(5-benzyloxycarbonyl-amino-6-oxo-2-(4-fluorophenyl)-1,6-dihydro-1-pyrimidinyl)acetoxyl]-L-aspartic acid aldehyde] was tested, and the IC50 (Ich-2 (Caspase 4)) was 9800 nM, the IC50 [1] was 1800 nM and the “Mode of Inhib.” value (ICE [2]) was “reversible”. For the same compound, the Ki (ICE [2]; 0.24 nM ICE, 15 µM Ac-Tyr-Val-Ala-Asp-AMC, reversible competitive model, read-out: 1. ICE Ki) was 60 nM, the “inhibition of IL-1β production” value (IL-1β production) was 48% and the “production of IL-1β (result in words)” value (IL-1β production) was “significantly blocks”. The IC50 (ICE [3]) was 485 nM, the “% Loss (percent loss of hemisphere weight)” value (excitotoxic brain damage) was 16.1% and the “extent of exitotoxic brain damage in rat pups (result in words)” value (excitotoxic brain damage) was “significantly reduces”. The “reduction in lesion size” value (focal cerebral ischemia; MCAOp (permanent), high dose 50 mg/kg × 3 IP at -5, 60, 180 minutes, 24 hours) was 13%, the “lesion size smaller in drug treated mice” value (focal cerebral ischemia; MCAOt (transient, suture withdrawn after 1 hour), 50 mg/kg × 3 IP, 24 hours) was 60% and the “arterial lesion size in ischemic brain damage (result in words)” value (focal cerebral ischemia; mice, middle cerebral artery occlusion after reperfusion, summary statement) was “reduced arterial lesion size”.
